Laboratory results taken from US11413292B2, “Tricyclic heterocycle compounds useful as HIV integrase inhibitors” (Merck Sharp & Dohme Corp., priority 2018, dated 2022).
Read-outs that look alike come from different tables or passages of the source.

Test system: HIV-1 (H9/IIIB strain) virus
Test: microbe, parasite or virus in culture
Assay type: cell-based
Details: MT4-GFP cells infected with HIV-1 H9/IIIB, inhibition of reproductive ratio
[1] = 100% normal human serum (NHS) condition, read-out: Viking, IC50 (100% NHS)
[2] = Human immunodeficiency virus 1, IIIB, 0% NHS condition (RPMI 1640), read-out: Viking, IC50 (0% NHS)
[3] = 0% NHS condition (RPMI 1640), read-out: Viking, IC50 (0% NHS)
[4] = 100% normal human serum (NHS) condition, 2,2,2-trifluoroacetate, read-out: Viking, IC50 (100% NHS)

SMILES | IC50 [1] | IC50 [2] | IC50 [3] | IC50 [4] | IC50 (0% NHS condition (RPMI 1640), 2,2,2-trifluoroacetate, read-out: Viking, IC50 (0% NHS))
O=C(NCc1c(F)cc(F)cc1F)c1cn2c(c(O)c1=O)C(=O)N1CCCCCN2C1 (single isomer, unassigned) [Example 1A, 9-hydroxy-8,10-dioxo-N-(2,4,6-trifluorobenzyl)-3,4,5,6,8,10-hexahydro-2H-1,7-methanopyrido[1,2-b][1,2,5]triazecine-11-carboxamide] | 2560 nM | 1.98 nM |  |  | 
O=C(NCc1c(F)cc(F)cc1F)c1cn2c(c(O)c1=O)C(=O)N1CCCCCN2C1 (single isomer, unassigned) [Example 1B, 9-hydroxy-8,10-dioxo-N-(2,4,6-trifluorobenzyl)-3,4,5,6,8,10-hexahydro-2H-1,7-methanopyrido[1,2-b][1,2,5]triazecine-11-carboxamide] | 94.7 nM |  | 1 nM |  | 
O=C(NCc1ccc(F)cc1F)c1cn2c(c(O)c1=O)C(=O)N1CCCCCCN2C1 (single isomer, unassigned) [Example 3A, N-(2,4-difluorobenzyl)-10-hydroxy-9,11-dioxo-2,3,4,5,6,7,9,11-octahydro-1,8-methanopyrido[1,2-b][1,2,5]triazacycloundecine-12-carboxamide] | 589 nM | 2.66 nM |  |  | 
O=C(NCc1ccc(F)cc1F)c1cn2c(c(O)c1=O)C(=O)N1CCCCCCN2C1 (single isomer, unassigned) [Example 3B, N-(2,4-difluorobenzyl)-10-hydroxy-9,11-dioxo-2,3,4,5,6,7,9,11-octahydro-1,8-methanopyrido[1,2-b][1,2,5]triazacycloundecine-12-carboxamide] | 1880 nM |  | 5.23 nM |  | 
O=C(NCc1ccc(F)cc1F)c1cn2c(c(O)c1=O)C(=O)N1CCOCCN2C1 (single isomer, unassigned) [Example 4A, N-(2,4-difluorobenzyl)-9-hydroxy-8,10-dioxo-2,3,5,6,8,10-hexahydro-1,7-methanopyrido[1,2-e][1,4,5,8]oxatriazecine-11-carboxamide] | 9520 nM |  | 3.45 nM |  | 
O=C(NCc1ccc(F)cc1F)c1cn2c(c(O)c1=O)C(=O)N1CCOCCN2C1 (single isomer, unassigned) [Example 4B, N-(2,4-difluorobenzyl)-9-hydroxy-8,10-dioxo-2,3,5,6,8,10-hexahydro-1,7-methanopyrido[1,2-e][1,4,5,8]oxatriazecine-11-carboxamide] | 197 nM | 1.78 nM |  |  | 
COC1CCN2CN(CC1)n1cc(C(=O)NCc3c(F)cc(F)cc3F)c(=O)c(O)c1C2=O (single isomer, unassigned) [Example 5A, 9-hydroxy-4-methoxy-8,10-dioxo-N-(2,4,6-trifluorobenzyl)-3,4,5,6,8,10-hexahydro-2H-1,7-methanopyrido[1,2-b][1,2,5]triazecine-11-carboxamide] | 67.2 nM |  | 3.2 nM |  | 
COC1CCN2CN(CC1)n1cc(C(=O)NCc3c(F)cc(F)cc3F)c(=O)c(O)c1C2=O (single isomer, unassigned) [Example 5B, 9-hydroxy-4-methoxy-8,10-dioxo-N-(2,4,6-trifluorobenzyl)-3,4,5,6,8,10-hexahydro-2H-1,7-methanopyrido[1,2-b][1,2,5]triazecine-11-carboxamide] | 124 nM |  | 1.93 nM |  | 
COC1CCN2CN(CC1)n1cc(C(=O)NCc3c(F)cc(F)cc3F)c(=O)c(O)c1C2=O (single isomer, unassigned) [Example 5C, 9-hydroxy-4-methoxy-8,10-dioxo-N-(2,4,6-trifluorobenzyl)-3,4,5,6,8,10-hexahydro-2H-1,7-methanopyrido[1,2-b][1,2,5]triazecine-11-carboxamide] | 62.8 nM |  | 1.68 nM |  | 
COC1CCN2CN(CC1)n1cc(C(=O)NCc3c(F)cc(F)cc3F)c(=O)c(O)c1C2=O (single isomer, unassigned) [Example 5D, 9-hydroxy-4-methoxy-8,10-dioxo-N-(2,4,6-trifluorobenzyl)-3,4,5,6,8,10-hexahydro-2H-1,7-methanopyrido[1,2-b][1,2,5]triazecine-11-carboxamide] | 544 nM |  | 5.32 nM |  | 
CN1CCN2CN(CC1)n1cc(C(=O)NCc3c(F)cc(F)cc3F)c(=O)c(O)c1C2=O (single isomer, unassigned) [Example 6A, 9-hydroxy-4-methyl-8,10-dioxo-N-(2,4,6-trifluorobenzyl)-3,4,5,6,8,10-hexahydro-2H-1,7-methanopyrido[1,2-b][1,2,5,8]tetrazecine-11-carboxamide 2,2,2-trifluoroacetate] |  | 4.64 nM |  | 169 nM | 
CN1CCN2CN(CC1)n1cc(C(=O)NCc3c(F)cc(F)cc3F)c(=O)c(O)c1C2=O (single isomer, unassigned) [Example 6B, 9-hydroxy-4-methyl-8,10-dioxo-N-(2,4,6-trifluorobenzyl)-3,4,5,6,8,10-hexahydro-2H-1,7-methanopyrido[1,2-b][1,2,5,8]tetrazecine-11-carboxamide 2,2,2-trifluoroacetate] |  |  |  | 80.2 nM | 2.4 nM
O=C(NCc1c(F)cc(F)cc1F)c1cn2c(c(O)c1=O)C(=O)N1CCC(F)(F)CCN2C1 (single isomer, unassigned) [Example 7A, 4,4-difluoro-9-hydroxy-8,10-dioxo-N-(2,4,6-trifluorobenzyl)-3,4,5,6,8,10-hexahydro-2H-1,7-methanopyrido[1,2-b][1,2,5]triazecine-11-carboxamide] | 4460 nM |  | 6.1 nM |  | 
O=C(NCc1c(F)cc(F)cc1F)c1cn2c(c(O)c1=O)C(=O)N1CCC(F)(F)CCN2C1 (single isomer, unassigned) [Example 7B, 4,4-difluoro-9-hydroxy-8,10-dioxo-N-(2,4,6-trifluorobenzyl)-3,4,5,6,8,10-hexahydro-2H-1,7-methanopyrido[1,2-b][1,2,5]triazecine-11-carboxamide] | 73.9 nM |  | 2.16 nM |  | 
O=C(NCc1c(F)cc(F)cc1F)c1cn2c(c(O)c1=O)C(=O)N1CCC(O)CCN2C1 (single isomer, unassigned) [Example 17A] | 1270 nM |  | 66.1 nM |  | 
O=C(NCc1c(F)cc(F)cc1F)c1cn2c(c(O)c1=O)C(=O)N1CCC(O)CCN2C1 (single isomer, unassigned) [Example 17B] | 275 nM |  | 7.6 nM |  | 
O=C(NCc1c(F)cc(F)cc1F)c1cn2c(c(O)c1=O)C(=O)N1CCC(O)CCN2C1 (single isomer, unassigned) [Example 17C] | 5920 nM |  | 184 nM |  | 

SMILES | IC50 [1] | IC50 [2] | IC50 [3] | IC50 [4] | IC50 (0% NHS condition (RPMI 1640), 2,2,2-trifluoroacetate, read-out: Viking, IC50 (0% NHS))
O=C(NCc1c(F)cc(F)cc1F)c1cn2c(c(O)c1=O)C(=O)N1CCC(O)CCN2C1 (single isomer, unassigned) [Example 17D] | 717 nM |  | 25.6 nM |  | 
COC1CCN2CN(CC1)n1cc(C(=O)NCc3cccc(Cl)c3F)c(=O)c(O)c1C2=O (single isomer, unassigned) [Example 18A] | 279 nM |  | 3.1 nM |  | 
COC1CCN2CN(CC1)n1cc(C(=O)NCc3cccc(Cl)c3F)c(=O)c(O)c1C2=O (single isomer, unassigned) [Example 18B] | 435 nM |  | 2.5 nM |  | 
COC1CCN2CN(CC1)n1cc(C(=O)NCc3cccc(Cl)c3F)c(=O)c(O)c1C2=O (single isomer, unassigned) [Example 18C] | 1870 nM |  | 3.2 nM |  | 
COC1CCN2CN(CC1)n1cc(C(=O)NCc3cccc(Cl)c3F)c(=O)c(O)c1C2=O (single isomer, unassigned) [Example 18D] | 230 nM |  | 1.5 nM |  | 
COC1CCN2CN(CC1)n1cc(C(=O)NCc3c(F)ccc(Cl)c3F)c(=O)c(O)c1C2=O (single isomer, unassigned) [Example 19A] | 116 nM |  | 1.8 nM |  | 
COC1CCN2CN(CC1)n1cc(C(=O)NCc3c(F)ccc(Cl)c3F)c(=O)c(O)c1C2=O (single isomer, unassigned) [Example 19B] | 1880 nM |  | 5.3 nM |  | 
COC1CCN2CN(CC1)n1cc(C(=O)NCc3c(F)ccc(Cl)c3F)c(=O)c(O)c1C2=O (single isomer, unassigned) [Example 19C] | 245 nM |  | 3.5 nM |  | 
COC1CCN2CN(CC1)n1cc(C(=O)NCc3c(F)ccc(Cl)c3F)c(=O)c(O)c1C2=O (single isomer, unassigned) [Example 19D] | 300 nM |  | 1.5 nM |  | 
COC1CCN2CN(CC1)n1cc(C(=O)NCc3ccc(F)cc3F)c(=O)c(O)c1C2=O (single isomer, unassigned) [Example 20A] | 88 nM |  | 3.3 nM |  | 
COC1CCN2CN(CC1)n1cc(C(=O)NCc3ccc(F)cc3F)c(=O)c(O)c1C2=O (single isomer, unassigned) [Example 20B] | 371 nM |  | 2.8 nM |  | 
COC1CCN2CN(CC1)n1cc(C(=O)NCc3ccc(F)cc3F)c(=O)c(O)c1C2=O (single isomer, unassigned) [Example 20C] | 606 nM |  | 7.5 nM |  | 
COC1CCN2CN(CC1)n1cc(C(=O)NCc3ccc(F)cc3F)c(=O)c(O)c1C2=O (single isomer, unassigned) [Example 20D] | 212 nM |  | 2.1 nM |  | 
COC1CCN2CN(CC1)n1cc(C(=O)NCc3ccc(F)c(Cl)c3F)c(=O)c(O)c1C2=O (single isomer, unassigned) [Example 21A] | 2520 nM |  | 2.5 nM |  | 
COC1CCN2CN(CC1)n1cc(C(=O)NCc3ccc(F)c(Cl)c3F)c(=O)c(O)c1C2=O (single isomer, unassigned) [Example 21B] | 207 nM |  | 0.9 nM |  | 
COC1CCN2CN(CC1)n1cc(C(=O)NCc3ccc(F)c(Cl)c3F)c(=O)c(O)c1C2=O (single isomer, unassigned) [Example 21C] | 311 nM |  | 1.7 nM |  | 
